Reference: US12054510B2, “2′ and/or 5′ amino-acid ester phosphoramidate 3′-deoxy adenosine derivatives as anti-cancer compounds” (Nucana plc, priority 2014, dated 2024)

Key:
[1] = tested on: HepG2; test: CellTiterGlo cell viability assay, initial screening; type: cell-based; conditions: for M.I. %: maximum percentage inhibition of cell viability: HepG2, 72 hr, Table II; for IC50: Homo sapiens, HepG2, 72 h, read-out: IC50 (relative IC50)
In short: (§1)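 Viability is measured with CellTiter-Glo following three days of treatment. Each compound runs as a nine-point titration at 3.16-fold steps, with a lowest final concentration of 19.9 nM, in duplicate wells at 0.5% final DMSO.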

[2] = tested on: MCF-7; test: as above; type: cell-based; conditions: MCF-7; 72 hr; Table II
In short: as §1

[3] = tested on: HL-60; test: as above; type: cell-based; conditions: for M.I. %: maximum percentage inhibition of cell viability: HL-60, 72 hr, Table II; for IC50: Homo sapiens, HL-60, 72 h, read-out: IC50 (relative IC50)
In short: as §1

[4] = tested on: MOLT-4; test: as above; type: cell-based; conditions: for M.I. %: maximum percentage inhibition of cell viability: MOLT-4, 72 hr, Table II
In short: as §1

[5] = tested on: RPMI-8226; test: Solid tumour and haematological malignancy assay (CellTiterGlo); type: cell-based, Human; conditions: for MI %: RPMI-8226, 72 hr
Description: (§2) In vitro viability assay were performed to assess the effects of compounds on cell viability in selected cell lines over 72 hr using the CellTiterGlo (CTG, Promega-G7573) assay. The tests were performed in duplicates with treatment of compounds at 9 points, 3.16 folds titration in 96 well plates over ˜72 hr. The compound starting concentrations were 198 mM. Cell viability assay using CellTiterGlo in 96-well plate were performed. Compound treatment 72 hrs, standard growth conditions, duplicates. Compounds were dissolved to 40 mM with thawed […]. Compounds were serially diluted at 3.16 fold in thawed DMSO, and warmed to 37° C. before being dissolved in media (2 μl+200 μl). After compounds were dissolved in media, media containing compounds were warmed to 37° C. in incubator and then compounds in media were added to cell plates (50 μl+50 μl) in duplicates. The compounds' final concentrations were from 198M to 19.9 nM. All compound solubilities were checked and recorded again, then the plates were transferred to CO2 tissue culture incubator immediately and incubated for 3 days. DMSO final concentration is 0.5%.

[6] = tested on: THP-1; test: as above; type: cell-based; conditions: 72 hr
Description: as §2

[7] = tested on: MV4-11; test: as above; type: cell-based; conditions: for IC50: Homo sapiens, MV4-11, 72 h, read-out: IC50 (absolute IC50)
Description: as §2

[8] = tested on: RL; test: as above; type: cell-based; conditions: Homo sapiens, 72 h, read-out: MI %
Description: as §2

[9] = tested on: HepG2; test: as above; type: cell-based; conditions: Homo sapiens, HepG2, 72 h; for Emax: read-out: MI %
Description: as §2, with “The tests were performed in duplicates with treatment of compounds at 9 points, 3.16 folds titration in 96 well plates over ˜72 hr. The compound starting concentrations were 198 mM.” left out, “Compounds were serially diluted at 3.16 fold in thawed DMSO, and warmed to 37° C. before being dissolved in media (2 μl+200 μl).” left out, “The compounds' final concentrations were from 198M to 19.9 nM.” left out

[10] = tested on: KG-1; test: as above; type: cell-based; conditions: Homo sapiens, KG-1, 72 h; for IC50: read-out: IC50 (absolute IC50); for Emax: read-out: MI %
Description: as §2, with “The tests were performed in duplicates with treatment of compounds at 9 points, 3.16 folds titration in 96 well plates over ˜72 hr. The compound starting concentrations were 198 mM.” left out, “Compounds were serially diluted at 3.16 fold in thawed DMSO, and warmed to 37° C. before being dissolved in media (2 μl+200 μl).” left out, “The compounds' final concentrations were from 198M to 19.9 nM.” left out

[11] = tested on: HT29; test: as above; type: cell-based; conditions: Homo sapiens, HT-29, 72 h; for IC50: read-out: IC50 (absolute IC50); for Emax: read-out: MI %
Description: as §2, with “The tests were performed in duplicates with treatment of compounds at 9 points, 3.16 folds titration in 96 well plates over ˜72 hr. The compound starting concentrations were 198 mM.” left out, “Compounds were serially diluted at 3.16 fold in thawed DMSO, and warmed to 37° C. before being dissolved in media (2 μl+200 μl).” left out, “The compounds' final concentrations were from 198M to 19.9 nM.” left out

[12] = tested on: HEL92.1.7; test: as above; type: cell-based; conditions: Homo sapiens, HEL 92.1.7, 72 h, read-out: MI %
Description: as §2, with “The tests were performed in duplicates with treatment of compounds at 9 points, 3.16 folds titration in 96 well plates over ˜72 hr. The compound starting concentrations were 198 mM.” left out, “Compounds were serially diluted at 3.16 fold in thawed DMSO, and warmed to 37° C. before being dissolved in media (2 μl+200 μl).” left out, “The compounds' final concentrations were from 198M to 19.9 nM.” left out

[13] = tested on: K562; test: as above; type: cell-based; conditions: Homo sapiens, K562, 72 h; for IC50: read-out: IC50 (absolute IC50); for Emax: read-out: MI %
Description: as §2, with “The tests were performed in duplicates with treatment of compounds at 9 points, 3.16 folds titration in 96 well plates over ˜72 hr. The compound starting concentrations were 198 mM.” left out, “Compounds were serially diluted at 3.16 fold in thawed DMSO, and warmed to 37° C. before being dissolved in media (2 μl+200 μl).” left out, “The compounds' final concentrations were from 198M to 19.9 nM.” left out

[14] = tested on: CCRFCEM; test: as above; type: cell-based; conditions: Homo sapiens, CCRF-CEM, 72 h
Description: as §2, with “The tests were performed in duplicates with treatment of compounds at 9 points, 3.16 folds titration in 96 well plates over ˜72 hr. The compound starting concentrations were 198 mM.” left out, “Compounds were serially diluted at 3.16 fold in thawed DMSO, and warmed to 37° C. before being dissolved in media (2 μl+200 μl).” left out, “The compounds' final concentrations were from 198M to 19.9 nM.” left out

[15] = tested on: HL-60; test: as above; type: cell-based; conditions: Homo sapiens, HL-60, 72 h, read-out: MI %
Description: as §2, with “The tests were performed in duplicates with treatment of compounds at 9 points, 3.16 folds titration in 96 well plates over ˜72 hr. The compound starting concentrations were 198 mM.” left out, “Compounds were serially diluted at 3.16 fold in thawed DMSO, and warmed to 37° C. before being dissolved in media (2 μl+200 μl).” left out, “The compounds' final concentrations were from 198M to 19.9 nM.” left out

[16] = tested on: MiaPaCa-2; test: as above; type: cell-based; conditions: Homo sapiens, MIA PaCa-2, 72 h, read-out: MI %
Description: as §2, with “The tests were performed in duplicates with treatment of compounds at 9 points, 3.16 folds titration in 96 well plates over ˜72 hr. The compound starting concentrations were 198 mM.” left out, “Compounds were serially diluted at 3.16 fold in thawed DMSO, and warmed to 37° C. before being dissolved in media (2 μl+200 μl).” left out, “The compounds' final concentrations were from 198M to 19.9 nM.” left out

[17] = tested on: MCF7; test: as above; type: cell-based; conditions: Homo sapiens, MCF7, 72 h; for IC50: read-out: IC50 (absolute IC50); for Emax: read-out: MI %
Description: as §2, with “The tests were performed in duplicates with treatment of compounds at 9 points, 3.16 folds titration in 96 well plates over ˜72 hr. The compound starting concentrations were 198 mM.” left out, “Compounds were serially diluted at 3.16 fold in thawed DMSO, and warmed to 37° C. before being dissolved in media (2 μl+200 μl).” left out, “The compounds' final concentrations were from 198M to 19.9 nM.” left out

[18] = tested on: NCI-H929; test: as above; type: cell-based; conditions: Homo sapiens, NCI-H929, 72 h, read-out: MI %
Description: as §2

[19] = tested on: Z138; test: as above; type: cell-based; conditions: 72 hr
Description: as §2

SMILES	M.I. %: maximum percentage inhibition of cell viability [1]	M.I. %: maximum percentage inhibition of cell viability [2]	M.I. %: maximum percentage inhibition of cell viability [3]	IC50 [3]	M.I. %: maximum percentage inhibition of cell viability [4]	MI % [5]	MI % [6]	IC50 [7]	Emax [8]	Emax [9]	IC50 [10]	Emax [10]	IC50 [11]	Emax [11]	Emax [12]	IC50 [13]	Emax [15]	Emax [16]	IC50 [17]	Emax [17]	further results
C[C@H](NP(=O)(OC[C@@H]1C[C@@H](O)[C@H](n2cnc3c(N)ncnc32)O1)Oc1cccc2ccccc12)C(=O)OCc1ccccc1 (stereo partly drawn) [B, (2S)-benzyl 2-(((((2S,4R,5R)-5-(6-amino-9H-purin-9-yl)-4-hydroxytetrahydrofuran-2-yl)methoxy)(naphthalen-1-yloxy)phosphoryl)amino)propanoate]	95%	99%	100%	5 to 15 µM	100%	102%	99%	0.1 to 5 µM	96%	98%	5 to 15 µM	97%	5 to 15 µM	98%	98%	0.1 to 5 µM	99%	98%	0.1 to 5 µM	96%	IC50 ([4]; Homo sapiens, MOLT-4, 72 h, read-out: IC50 (relative IC50)): 100 to 5000 nM; Emax [13]: 99%; IC50 ([14]; read-out: IC50 (absolute IC50)): 100 to 5000 nM
COC(=O)C(C)(C)NP(=O)(OC[C@@H]1C[C@@H](O)[C@H](n2cnc3c(N)ncnc32)O1)Oc1cccc2ccccc12 (stereo partly drawn) [E, Methyl 2-(((((2S,4R,5R)-5-(6-amino-9H-purin-9-yl)-4-hydroxytetrahydrofuran-2-yl)-methoxy)(naphthalen-1-yloxy)phosphoryl)amino)-2-methylpropanoate]	59%	78%	74%	15 to 100 µM	97%	89%	43%	5 to 15 µM	88%	67%	15 to 100 µM	–	15 to 100 µM	76%	101%	5 to 15 µM	95%	91%	5 to 15 µM	89%	IC50 [1]: 15 to 100 µM; Emax [18]: 98%; MI % [19]: 93%; MI % ([7]; MV4-11, 72 hr): 101%; IC50 ([9]; read-out: IC50 (absolute IC50)): 15 to 100 µM
CCOC(=O)CCc1ccccc1OP(=O)(N[C@@H](C)C(=O)OCc1ccccc1)OC[C@@H]1C[C@@H](O)[C@H](n2cnc3c(N)ncnc32)O1 (stereo partly drawn) [F, (2S)-benzyl 2-(((((2S,4R,5R)-5-(6-amino-9H-purin-9-yl)-4-hydroxytetrahydrofuran-2-yl)methoxy)(2-(3-ethoxy-3-oxopropyl)phenoxy)phosphoryl)amino)propanoate]	84%	99%	100%	15 to 100 µM	100%	106%	–	–	–	79%	15 to 100 µM	95%	15 to 100 µM	89%	99%	–	96%	101%	5 to 15 µM	103%	IC50 [1]: 15 to 100 µM; IC50 ([5]; Homo sapiens, RPMI-8226, 72 h, read-out: IC50 (absolute IC50)): 15 to 100 µM; MI % [19]: 76%; Emax [13]: 93%; Emax ([14]; read-out: MI %): 101%
